Tested on: recombinant human IL-8 type a and b receptors
Assay: Receptor binding assays ([125I] IL-8 / 125I Gro-a, CHO membranes)
Conditions: 125I IL-8 (0.25 nM) or 125I Gro-a; IL-8Ra or IL-8Rb membranes from Chinese hamster ovary cells; receptor subtype not specified for the result
Procedure: The IL-8, and Gro-a chemokine inhibitiory effects of compounds of the present invention were determined by the following in vitro assay:
[^125 I] IL-8 (human recombinant) is obtained from Amersham Corp., Arlington Heights, Ill., with specific activity 2000 Ci/mmol. Gro-a is obtained from NEN-New England Nuclear. All other chemicals are of analytical grade. High levels of recombinant human IL-8 type a and b receptors are individually expressed in Chinese hamster ovary cells as described previously (Holmes, et al., Science, 1991, 253, 1278). The Chinese hamster ovary membranes are homogenized according to a previously described protocol (Haour. et al., J Biol Chem., 249 pp 2195-2205 (1974)). Except that the homogenization buffer is changed to 10 mM Tris-HCL, 1 mM MgSO4, 0.5 mM EDTA (ethylene-diaminetetra-acetic acid), 1 mMPMSF (a-toluenesulphonyl fluoride), 0.5 mg/L Leupeptin, pH 7.5. Membrane protein concentration is determined using Pierce Co. micro-assay kit using bovine serum albumin as a standard. All assays are performed in a 96-well micro plate format. Each reaction mixture contains ^125 I IL-8 (0.25 nM) or ^125 I Gro-a and 0.5 μg/mL of IL-8Ra or 1.0 μg/mL of IL-8Rb membranes in 20 mM Bis-Trispropane and 0.4 mM Tris HCl buffers, pH 8.0, containing 1.2 mM MgSO4, 0.1 mM EDTA, mM NaCl and 0.03% CHAPS. […] The filter is then dried and counted on the Betaplate liquid scintillation counter. […]

Cc1ccc(S(=O)(=O)NC(=O)c2cccc(NC(=O)Nc3ccccc3Br)c2)cc1 [Example 1, N-[3-(4-methylphenylsulfonyl)carboxamido]-N'-(2-bromophenyl)urea]
activity in receptor binding assay (inhibition of IL-8 / Gro-a binding): active

Source: US6214881A, “IL-8 receptor antagonists” (SmithKline Beecham Corporation, priority 1999, dated 2001)
